The record followed here is PubChem BioAssay (NCI).

Test systems include SK-MEL-5 melanoma; BT-549 breast; LOX IMVI melanoma; HCC-2998 colon; RXF 393 renal; MCF7 breast; NCI-H522 lung; MALME-3M melanoma; HOP-62 NSCLC; UACC-62 melanoma; MDA-N; DU-145 prostate; M14 melanoma; U251 CNS; SN12C renal; OVCAR-5 ovarian; NCI-H460 lung; HS 578T breast; IGROV1 ovarian; UO-31 renal.
Assay in all cases: growth of human tumour cells (NCI), 48 h

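Following 48 hours of exposure in 96-well plates, responses at five concentrations were used to interpolate endpoints linearly. TGI is the concentration that stops growth completely.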

As to `Cc1nn2c(=O)c([N+](=O)[O-])c(/C=C/c3ccccc3)nc2s1`, the TGI with SK-MEL-5 melanoma was determined as 11.2 µM; in the assay on BT-549 breast, 7.86 µM; in the assay on LOX IMVI melanoma, 3.98 µM; with HCC-2998 colon it was 43.1 µM; with RXF 393 renal, 7.32 µM; in the assay with MCF7 breast, 8.86 µM. Moreover, the TGI in the assay on NCI-H522 lung was 12 µM; in the assay with MALME-3M melanoma, over 71.7 µM; in the assay on HOP-62 NSCLC, over 72 µM; with UACC-62 melanoma, 26.9 µM; in the assay with MDA-N, 6.72 µM; with DU-145 prostate, over 100 µM. The TGI with M14 melanoma is over 53.9 µM; with U251 CNS, 7.99 µM; in the assay with SN12C renal it was over 100 µM; with OVCAR-5 ovarian, over 100 µM; in the assay on NCI-H460 lung, 29 µM; in the assay with HS 578T breast, over 100 µM. Moreover, the results for the TGI with IGROV1 ovarian and with UO-31 renal were over 67.8 µM and over 54 µM, respectively.

As for `C[C@@]12C=CC3C/C(=N\C(N)=S)C=C(CCCC4OCCO4)[C@]3(CC1)C2` (stereo not given in full), the TGI with SK-MEL-5 melanoma turned out to be 24.8 µM; in the assay on BT-549 breast, 51.9 µM; with LOX IMVI melanoma, 31.1 µM; in the assay on HCC-2998 colon it was 34.2 µM; in the assay on RXF 393 renal, 31.7 µM; with MCF7 breast it was 26.4 µM. Also, the TGI in the assay on NCI-H522 lung came to 22.9 µM; in the assay with MALME-3M melanoma it was 37.6 µM; in the assay on HOP-62 NSCLC, 92.3 µM; in the assay on UACC-62 melanoma, 30.4 µM; in the assay with MDA-N it was 33.9 µM; in the assay with DU-145 prostate, 78.6 µM. Besides, the TGI with M14 melanoma is 30.9 µM; with U251 CNS, 48.4 µM; in the assay on SN12C renal, 30.8 µM; in the assay with OVCAR-5 ovarian it was 33.3 µM; with NCI-H460 lung it was 32 µM; in the assay with HS 578T breast, 72.5 µM. Besides, the TGI turned out to be 37.9 µM in the assay with IGROV1 ovarian and 38.9 µM in the assay on UO-31 renal.

With `COc1ccc(Br)c2c1CC(C(=O)O)CC2` (stereo not given), the TGI in the assay with SK-MEL-5 melanoma, in the assay on BT-549 breast, in the assay on LOX IMVI melanoma, in the assay on HCC-2998 colon, in the assay on RXF 393 renal and with MCF7 breast was over 100 µM each time. Further, the TGI in the assay on NCI-H522 lung, with MALME-3M melanoma, with HOP-62 NSCLC, in the assay with UACC-62 melanoma, in the assay on MDA-N and with DU-145 prostate was over 100 µM throughout. Besides, the TGI with M14 melanoma, in the assay on U251 CNS, in the assay with SN12C renal, with OVCAR-5 ovarian, with NCI-H460 lung and with HS 578T breast was over 100 µM throughout. In addition, the TGI in the assay on IGROV1 ovarian and with UO-31 renal was over 100 µM throughout.

Turning to `O=C(O)C1C(C(=O)O)C2C(=O)C=CC1N2Cc1ccccc1` (stereo not given), the TGI in the assay with SK-MEL-5 melanoma was determined as 17.2 µM; in the assay on BT-549 breast it was 17.4 µM; with LOX IMVI melanoma, 19.1 µM; in the assay on HCC-2998 colon it was 7.71 µM; with RXF 393 renal, 7.51 µM; with MCF7 breast, 25.7 µM. The TGI was determined as 3.78 µM in the assay with NCI-H522 lung; 8.73 µM in the assay on MALME-3M melanoma; 10.5 µM in the assay on HOP-62 NSCLC; 21.3 µM in the assay with UACC-62 melanoma; 11.4 µM in the assay on MDA-N; 6.17 µM with DU-145 prostate. The TGI is 5.99 µM with M14 melanoma; 14.2 µM in the assay on U251 CNS; 5.47 µM in the assay on SN12C renal; 20.5 µM with OVCAR-5 ovarian; 5.1 µM in the assay with NCI-H460 lung; 6.1 µM in the assay on HS 578T breast. Further, the figures for the TGI in the assay with IGROV1 ovarian and in the assay on UO-31 renal were 27.1 µM and 3.72 µM, respectively.

Consider `CCOC(=O)c1ccc(C(=O)OCC)n1-c1cc2cc(c1)CSCc1cc(cc(-n3c(C(=O)OCC)ccc3C(=O)OCC)c1)CSC2`, for which the TGI in the assay with SK-MEL-5 melanoma, with BT-549 breast, with LOX IMVI melanoma, in the assay on HCC-2998 colon, in the assay on RXF 393 renal and in the assay on MCF7 breast was over 10 µM throughout. The TGI in the assay on NCI-H522 lung, in the assay on MALME-3M melanoma, in the assay with HOP-62 NSCLC, in the assay on UACC-62 melanoma, with MDA-N and in the assay on DU-145 prostate was over 10 µM in each case. For the same molecule, the TGI with M14 melanoma, in the assay on U251 CNS, in the assay with SN12C renal, with OVCAR-5 ovarian, in the assay with NCI-H460 lung and in the assay on HS 578T breast was over 10 µM in each case. Also, the TGI in the assay with IGROV1 ovarian and in the assay on UO-31 renal was over 10 µM throughout.

As for `CCOC(=O)CCC(NC(=O)Cc1ccc(Nc2nc3ccccc3nc2-c2ccccc2)cc1)C(=O)OCC` (stereo not given), the TGI in the assay with SK-MEL-5 melanoma was over 100 µM; in the assay with BT-549 breast it was over 100 µM; in the assay on LOX IMVI melanoma it was over 100 µM; with HCC-2998 colon, over 100 µM; in the assay on RXF 393 renal it was 44.8 µM; in the assay on MCF7 breast, over 100 µM. In addition, the TGI with NCI-H522 lung, with MALME-3M melanoma, in the assay on HOP-62 NSCLC, in the assay with UACC-62 melanoma, in the assay with MDA-N and in the assay on DU-145 prostate was over 100 µM in each case. In addition, the TGI is over 100 µM in the assay on M14 melanoma; 78.1 µM with U251 CNS; over 100 µM in the assay with SN12C renal; over 100 µM with OVCAR-5 ovarian; over 100 µM with NCI-H460 lung; 74.6 µM in the assay with HS 578T breast. In addition, the TGI in the assay with IGROV1 ovarian and in the assay with UO-31 renal was over 100 µM throughout.

Take `C=C(c1ccccc1)C1ON(C)CCc2cc(OC)c(OC)cc21` (stereo not given): the TGI with SK-MEL-5 melanoma was 66 µM; in the assay on BT-549 breast it was over 100 µM; in the assay with LOX IMVI melanoma it was over 100 µM; in the assay with HCC-2998 colon it was over 100 µM; in the assay with RXF 393 renal it was over 100 µM; with MCF7 breast, 48.3 µM. The TGI in the assay on NCI-H522 lung, in the assay on MALME-3M melanoma, with HOP-62 NSCLC, in the assay on UACC-62 melanoma, in the assay with MDA-N and with DU-145 prostate was over 100 µM throughout. For the same molecule, the TGI in the assay with M14 melanoma, in the assay on U251 CNS, with SN12C renal, in the assay on OVCAR-5 ovarian, in the assay with NCI-H460 lung and with HS 578T breast was over 100 µM in each case. Moreover, the TGI with IGROV1 ovarian and in the assay with UO-31 renal was over 100 µM each time.

Regarding `Cc1nc2sc(CCl)nn2c(=O)c1Cl`, the TGI was 18.7 µM in the assay with SK-MEL-5 melanoma; 15.6 µM with BT-549 breast; 7.34 µM in the assay with LOX IMVI melanoma; 37.7 µM in the assay on HCC-2998 colon; 11 µM in the assay with RXF 393 renal; 18.1 µM with MCF7 breast. The TGI was 12.4 µM in the assay on NCI-H522 lung; 24.9 µM in the assay on MALME-3M melanoma; 32.1 µM in the assay with HOP-62 NSCLC; 36.2 µM with UACC-62 melanoma; 24.8 µM with MDA-N; 29.7 µM in the assay on DU-145 prostate. In addition, the TGI in the assay with M14 melanoma worked out at 26.9 µM; with U251 CNS, 19.2 µM; in the assay with SN12C renal it was 26.6 µM; with OVCAR-5 ovarian, 28.7 µM; in the assay with NCI-H460 lung it was 25.3 µM; in the assay with HS 578T breast, 47.3 µM. Also, the TGI in the assay on IGROV1 ovarian is 34.8 µM; in the assay with UO-31 renal it was 27.6 µM.
